From patent US20190352288A1, “MATRIX METALLOPROTEINASE (MMP) INHIBITORS AND METHODS OF USE THEREOF” (Foresee Pharmaceuticals Co., Ltd., priority 2018, published 2019)
Each block holds one molecule with its values, some of them ahead of it.

Key:
Format in all cases: biochemical
[1] = target: T1, recombinant human MMP-12 catalytic domain (Homo sapiens, UniProt P39900); assay: MMP-12 inhibitory assay (fluorogenic substrate cleavage); settings: readout at 30 minutes, 37° C., Table 1
T1 construct: recombinant human MMP-12 catalytic domain; purchased Enzo BML-SE138
Method: (§1) The inhibitory effect of compounds on the rate of cleaving fluorogenic MMP substrate (Enzo, BML-P128) by recombinant human MMP-12 catalytic domain (Enzo, BML-SE138) was carried out by methods known in the art. Briefly, to each well of a 96-well black opaque plate, all the reagents were sequentially added by pipetting, and the final reaction contained 4 nM of recombinant human MMP-12 catalytic domain, 4 μM of fluorogenic MMP substrate, and various concentrations (0.15 nM to 10,000 nM) of tested compound dilutions in HEPES buffer (pH 7.5) containing 10 mM of CaCl2), 0.01% Brij® 35 (polyoxyethylene (23) lauryl ether), and 0.1 mg/ml of BSA.
(§2) The enzyme and compounds were pre-incubated on a shaker to mix in wells. After an hour of mixing, fluorogenic substrate was added to each well. Reaction without enzyme was used as a blank control in the plate. The plate was then fed into a plate reader to measure fluorescence intensity at Excitation/Emission wavelengths of 340 nm/440 nm every 10 mins for at least 1 hour at 37° C. The IC50 of each compound in MMP-12 inhibition was determined by using a readout obtained at time point 30 minutes.

[2] = target: T2, recombinant human MMP-1 (Homo sapiens, UniProt P03956); assay: MMP selectivity assay, MMP-1; settings: Table 2 selectivity profile
T2 sequence (P03956 100-469): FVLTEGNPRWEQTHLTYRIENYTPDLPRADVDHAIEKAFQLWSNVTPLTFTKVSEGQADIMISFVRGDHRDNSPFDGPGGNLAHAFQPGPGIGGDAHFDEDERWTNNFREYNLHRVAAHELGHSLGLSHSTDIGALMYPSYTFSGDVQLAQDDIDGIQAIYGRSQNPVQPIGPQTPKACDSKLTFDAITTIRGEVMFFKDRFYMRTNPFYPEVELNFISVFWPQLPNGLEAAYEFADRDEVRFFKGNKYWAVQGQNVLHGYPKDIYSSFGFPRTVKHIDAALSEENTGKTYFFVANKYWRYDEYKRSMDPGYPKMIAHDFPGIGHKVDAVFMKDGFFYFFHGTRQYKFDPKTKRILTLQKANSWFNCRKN
Method: as §1, §2
(§3) The MMP selectivity assay was performed by using other recombinant human MMPs, including MMP-1, MMP-2, MMP-3, MMP-7, MMP-8, MMP-9, MMP-10, MMP-13, and MMP-14. The IC50 of the compounds for the other recombinant human MMPs was determined as described above in Example 1, and are shown in Table 2.

[3] = target: T3, recombinant human MMP-2 (Homo sapiens, UniProt P08253); assay: MMP selectivity assay, MMP-2; settings: Table 2 selectivity profile
T3 sequence (P08253 110-660): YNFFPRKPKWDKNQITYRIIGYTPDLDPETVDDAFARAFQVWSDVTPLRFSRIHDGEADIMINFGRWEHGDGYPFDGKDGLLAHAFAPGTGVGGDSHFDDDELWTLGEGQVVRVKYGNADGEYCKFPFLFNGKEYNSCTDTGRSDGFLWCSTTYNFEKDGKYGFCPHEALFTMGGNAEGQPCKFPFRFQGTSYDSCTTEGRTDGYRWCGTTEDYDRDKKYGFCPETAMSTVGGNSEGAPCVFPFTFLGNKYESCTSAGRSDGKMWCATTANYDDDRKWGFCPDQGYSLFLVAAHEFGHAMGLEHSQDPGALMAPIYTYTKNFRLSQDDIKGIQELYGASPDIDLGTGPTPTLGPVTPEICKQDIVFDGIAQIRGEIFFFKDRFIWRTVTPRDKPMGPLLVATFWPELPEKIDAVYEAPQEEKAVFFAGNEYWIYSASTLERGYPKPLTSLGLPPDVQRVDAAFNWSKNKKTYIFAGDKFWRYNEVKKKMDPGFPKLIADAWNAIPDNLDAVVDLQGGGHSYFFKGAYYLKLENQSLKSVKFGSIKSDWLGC
Method: as §1, §2, §3

[4] = target: recombinant human MMP-3 (Homo sapiens, UniProt P08254); assay: MMP selectivity assay, MMP-3; settings: Table 2 selectivity profile
Method: as §1, §2, §3

[5] = target: T4, recombinant human MMP-7 (Homo sapiens, UniProt P09237); assay: MMP selectivity assay, MMP-7; settings: Table 2 selectivity profile
T4 sequence (P09237 95-267): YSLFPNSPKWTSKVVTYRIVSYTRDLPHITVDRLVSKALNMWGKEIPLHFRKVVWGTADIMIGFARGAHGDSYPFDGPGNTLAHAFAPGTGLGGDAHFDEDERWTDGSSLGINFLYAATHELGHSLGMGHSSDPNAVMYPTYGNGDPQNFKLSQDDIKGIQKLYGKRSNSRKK
Method: as §1, §2, §3

[6] = target: recombinant human MMP-8 (Homo sapiens, UniProt P22894); assay: MMP selectivity assay, MMP-8; settings: Table 2 selectivity profile
Method: as §1, §2, §3

[7] = target: recombinant human MMP-9 (Homo sapiens, UniProt P14780); assay: MMP selectivity assay, MMP-9; settings: Table 2 selectivity profile
Method: as §1, §2, §3

[8] = target: recombinant human MMP-10 (Homo sapiens, UniProt P09238); assay: MMP selectivity assay, MMP-10; settings: Table 2 selectivity profile
Method: as §1, §2, §3

[9] = target: recombinant human MMP-13 (Homo sapiens, UniProt P45452); assay: MMP selectivity assay, MMP-13; settings: Table 2 selectivity profile
Method: as §1, §2, §3

[10] = target: recombinant human MMP-14 (Homo sapiens, UniProt P50281); assay: MMP selectivity assay, MMP-14; settings: Table 2 selectivity profile
Method: as §1, §2, §3

Chain of recombinant human MMP-10 (P09238 99-476): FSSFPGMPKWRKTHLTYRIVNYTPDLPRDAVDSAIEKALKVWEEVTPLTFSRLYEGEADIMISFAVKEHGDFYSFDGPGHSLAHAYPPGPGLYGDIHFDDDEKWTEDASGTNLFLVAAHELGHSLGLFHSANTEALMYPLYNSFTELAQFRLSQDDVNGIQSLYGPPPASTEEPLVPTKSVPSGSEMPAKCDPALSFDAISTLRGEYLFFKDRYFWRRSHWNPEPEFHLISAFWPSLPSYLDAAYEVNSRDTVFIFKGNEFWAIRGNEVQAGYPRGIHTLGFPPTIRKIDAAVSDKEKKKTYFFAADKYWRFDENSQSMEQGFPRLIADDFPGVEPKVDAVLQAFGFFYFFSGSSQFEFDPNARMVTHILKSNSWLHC
T1 sequence (P39900 106-268 limits assumed): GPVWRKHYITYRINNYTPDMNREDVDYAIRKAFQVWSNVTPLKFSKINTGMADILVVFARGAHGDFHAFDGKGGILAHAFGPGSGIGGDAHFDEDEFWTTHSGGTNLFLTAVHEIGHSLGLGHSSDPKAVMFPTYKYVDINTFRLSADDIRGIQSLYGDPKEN
Chain of recombinant human MMP-8 (P22894 101-467): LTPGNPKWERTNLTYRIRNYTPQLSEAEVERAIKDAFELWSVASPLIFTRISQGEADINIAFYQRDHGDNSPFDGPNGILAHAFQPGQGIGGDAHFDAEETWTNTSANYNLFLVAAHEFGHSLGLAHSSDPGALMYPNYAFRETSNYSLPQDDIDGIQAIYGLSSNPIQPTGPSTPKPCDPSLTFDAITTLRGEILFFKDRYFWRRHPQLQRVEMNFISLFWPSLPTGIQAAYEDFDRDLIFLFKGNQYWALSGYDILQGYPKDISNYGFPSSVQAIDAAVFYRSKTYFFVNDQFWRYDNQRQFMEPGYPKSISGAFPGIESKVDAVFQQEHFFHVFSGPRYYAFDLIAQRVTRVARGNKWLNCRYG
Chain of recombinant human MMP-3 (P08254 100-477): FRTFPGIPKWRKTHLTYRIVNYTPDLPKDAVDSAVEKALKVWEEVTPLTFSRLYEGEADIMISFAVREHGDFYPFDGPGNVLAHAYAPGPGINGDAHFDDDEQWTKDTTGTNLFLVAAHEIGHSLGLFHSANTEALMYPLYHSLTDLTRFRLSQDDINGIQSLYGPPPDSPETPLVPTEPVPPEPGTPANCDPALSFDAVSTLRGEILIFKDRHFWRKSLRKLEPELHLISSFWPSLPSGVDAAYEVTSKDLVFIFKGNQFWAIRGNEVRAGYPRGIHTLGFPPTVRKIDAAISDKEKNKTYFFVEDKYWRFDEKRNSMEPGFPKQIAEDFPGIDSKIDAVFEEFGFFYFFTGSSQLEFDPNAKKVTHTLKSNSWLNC
Chain of recombinant human MMP-9 (P14780 94-707): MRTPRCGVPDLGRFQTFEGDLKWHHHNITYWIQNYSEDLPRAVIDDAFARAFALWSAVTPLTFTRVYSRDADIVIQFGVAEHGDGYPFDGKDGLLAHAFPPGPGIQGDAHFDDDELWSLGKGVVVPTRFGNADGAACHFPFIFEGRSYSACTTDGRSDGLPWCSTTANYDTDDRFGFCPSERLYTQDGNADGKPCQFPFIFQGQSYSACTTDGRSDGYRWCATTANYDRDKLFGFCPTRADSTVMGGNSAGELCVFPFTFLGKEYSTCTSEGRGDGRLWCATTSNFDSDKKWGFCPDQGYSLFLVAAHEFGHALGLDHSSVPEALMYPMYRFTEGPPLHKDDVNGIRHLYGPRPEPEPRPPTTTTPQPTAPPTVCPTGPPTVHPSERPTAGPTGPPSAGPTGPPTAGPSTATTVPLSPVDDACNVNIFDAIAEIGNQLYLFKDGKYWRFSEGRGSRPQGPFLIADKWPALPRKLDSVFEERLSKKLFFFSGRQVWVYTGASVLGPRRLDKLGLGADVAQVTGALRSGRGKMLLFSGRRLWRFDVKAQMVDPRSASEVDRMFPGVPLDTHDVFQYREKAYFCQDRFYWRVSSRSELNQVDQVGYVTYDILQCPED

SMILES: Cc1cccc(COc2ccc(Sc3ncn(C)c3C3NC(=O)NC3=O)cc2)c1 (stereo not drawn) [OC-6]
IC50 [1]: 10 to 100 nM

SMILES: Cc1cccc(COc2ccc(Sc3ncccc3C3NC(=O)NC3=O)cc2)c1 (stereo not drawn) [PC-1]
IC50 [1]: 10 to 100 nM

SMILES: O=C1NC(=O)C(c2cnccc2Sc2ccc(OCc3ccnc(O)c3)cc2)N1 (stereo not drawn) [PC-35]
IC50 [1]: 100 to 1000 nM

SMILES: Cc1cc(OCc2ccc(Sc3ccncc3C3NC(=O)NC3=O)cc2)ccn1 (stereo not drawn) [PC-44]
IC50 [1]: 10 to 100 nM

SMILES: O=C1NC(=O)C(c2ccncc2Sc2ccc(OCc3ccccc3CO)cc2)N1 (stereo not drawn) [PC-12]
IC50 [2]: > 10000 nM
IC50 [3]: 1000 to 10000 nM
IC50 [4]: 100 to 1000 nM
IC50 [5]: > 10000 nM
IC50 [6]: 1000 to 10000 nM
IC50 [7]: 1000 to 10000 nM
IC50 [8]: 1000 to 10000 nM
IC50 [9]: > 10000 nM
IC50 [10]: > 10000 nM

SMILES: Cc1cccc(COc2ccc(Oc3ccncc3C3NC(=O)NC3=O)cc2)c1 (stereo not drawn) [PC-26]
IC50 [1]: 10 to 100 nM

SMILES: COc1cc(COc2ccc(Sc3ccncc3C3NC(=O)NC3=O)cc2)ccn1 (stereo not drawn) [PC-30]
IC50 [1]: 10 to 100 nM

SMILES: CC(C)COc1cc(COc2ccc(Sc3ccncc3C3NC(=O)NC3=O)cc2)ccn1 (stereo not drawn) [PC-33]
IC50 [1]: 100 to 1000 nM

SMILES: O=C1NC(=O)C(c2cnccc2Sc2ccc(OCc3cncc(CO)c3)cc2)N1 (stereo not drawn) [PC-39]
IC50 [1]: 100 to 1000 nM

SMILES: NC(=O)c1cncc(COc2ccc(Sc3ccncc3C3NC(=O)NC3=O)cc2)c1 (stereo not drawn) [PC-34]
IC50 [1]: 10 to 100 nM

SMILES: NC(=O)c1ccc(COc2ccc(Sc3ccncc3C3NC(=O)NC3=O)cc2)cc1 (stereo not drawn) [PC-37]
IC50 [1]: 100 to 1000 nM

SMILES: Cc1cc(COc2ccc(Sc3cc(C)ncc3C3NC(=O)NC3=O)cc2)ccn1 (stereo not drawn) [PC-45]
IC50 [1]: 10 to 100 nM

SMILES: CCOc1cccc(COc2ccc(Sc3ccsc3C3NC(=O)NC3=O)cc2)c1 (stereo not drawn) [TC2]
IC50 [1]: 100 to 1000 nM

SMILES: O=C1NC(=O)C(c2ccncc2Sc2ccc(OCc3ccnc(CO)c3)cc2)N1 (stereo not drawn) [PC-53]
IC50 [1]: 10 to 100 nM

SMILES: CC(C)Oc1cccc(COc2ccc(Sc3ccsc3C3NC(=O)NC3=O)cc2)c1 (stereo not drawn) [TC3]
IC50 [1]: 100 to 1000 nM

Now from value to molecule:

IC50 [1]: 10 to 100 nM
SMILES: O=C1NC(=O)C(c2ccncc2Sc2ccc(OCc3ccc(CO)cc3)cc2)N1 (stereo not drawn) [PC-14]

IC50 [1]: 100 to 1000 nM
SMILES: CNC(=O)c1cncc(COc2ccc(Sc3ccncc3C3NC(=O)NC3=O)cc2)c1 (stereo not drawn) [PC-36]

IC50 [2]: > 10000 nM
IC50 [3]: 1000 to 10000 nM
IC50 [4]: 1000 to 10000 nM
IC50 [5]: > 10000 nM
IC50 [6]: 100 to 1000 nM
IC50 [7]: 1000 to 10000 nM
IC50 [8]: 1000 to 10000 nM
IC50 [9]: 100 to 1000 nM
IC50 [10]: 1000 to 10000 nM
SMILES: NC(=O)c1cccc(COc2ccc(Sc3ccncc3C3NC(=O)NC3=O)cc2)c1 (stereo not drawn) [PC-28]

IC50 [1]: 10 to 100 nM
SMILES: Cc1cccc(COc2ccc(Sc3cnn(C)c3C3NC(=O)NC3=O)cc2)c1 (stereo not drawn) [OC-5]

IC50 [1]: 10 to 100 nM
SMILES: Cc1cc(COc2ccc(Sc3ccncc3C3NC(=O)NC3=O)cc2Cl)ccn1 (stereo not drawn) [PC-49]

IC50 [2]: > 10000 nM
IC50 [3]: 1000 to 10000 nM
IC50 [4]: 100 to 1000 nM
IC50 [5]: > 10000 nM
IC50 [6]: 1000 to 10000 nM
IC50 [7]: 1000 to 10000 nM
IC50 [8]: 1000 to 10000 nM
IC50 [9]: 100 to 1000 nM
IC50 [10]: 1000 to 10000 nM
SMILES: CCC1(c2cnccc2Sc2ccc(OCc3cccc(C)c3)cc2)NC(=O)NC1=O (stereo not drawn) [PC-22]

IC50 [1]: 100 to 1000 nM
SMILES: Cc1cccc(COc2ccc([S+]([O-])c3ccccc3C3NC(=O)NC3=O)cc2)c1 (stereo not drawn) [OC-2]

IC50 [1]: 10 to 100 nM
SMILES: CCOc1cc(COc2ccc(Sc3ccncc3C3NC(=O)NC3=O)cc2)ccn1 (stereo not drawn) [PC-31]

IC50 [1]: 10 to 100 nM
SMILES: Cc1cc(CNc2ccc(Sc3ccncc3C3NC(=O)NC3=O)cc2)ccn1 (stereo not drawn) [PC-56]

IC50 [1]: 10 to 100 nM
SMILES: O=C1NC(=O)C(c2cnccc2Oc2ccc(OCc3cccc(CO)c3)cc2)N1 (stereo not drawn) [PC-25]

IC50 [1]: 10 to 100 nM
SMILES: CC(C)Oc1cc(COc2ccc(Sc3ccncc3C3NC(=O)NC3=O)cc2)ccn1 (stereo not drawn) [PC-32]

IC50 [1]: 10 to 100 nM
SMILES: Cc1cccc(COc2ccc(Sc3ncoc3C3NC(=O)NC3=O)cc2)c1 (stereo not drawn) [OC-10]
